Consider two compounds from publication PMC10539800, “Small-molecule inhibitors of the PDZ domain of Dishevelled proteins interrupt Wnt signalling” (Magnetic resonance, 2021).

The target in assay [1] is T1, Dvl-3 PDZ (Homo sapiens, UniProt Q92997).
T1 construct: spectra of Dvl-3 PDZ in the absence and presence of the compound; His-tag (cleaved yes); made in house
T1 sequence (Q92997 243-336): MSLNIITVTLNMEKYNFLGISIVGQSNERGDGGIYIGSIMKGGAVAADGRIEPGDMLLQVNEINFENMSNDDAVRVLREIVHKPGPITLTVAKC
Nature of the assay: NMR 1H-15N HSQC chemical shift perturbation. The class given is binding. To be noted: Dvl-3 PDZ; average of the three strongest shifting cross peaks. Here is the method:
The results of virtual screening were checked experimentally by comparing 2D ^1H-^15N HSQC (heteronuclear single quantum correlation) spectra of Dvl-3 PDZ in the absence and presence of the compound to elucidate ligand-induced changes of chemical shifts. Chemical shift perturbation differences ( Δ CSP, representing the average of the three strongest shifting cross peaks according to Eq. 1) were evaluated in cases where the residues responding strongest are inside the area defined by Fig. 1a. […] In most cases, the signals of residues S263, V287, and R320 (Fig. 1a) within the conserved binding site were most strongly perturbed (Fig. S2). With the Δ CSP of 0.12 ppm, the isoleucine-derived compound 1 ((2,3-dihydrobenzo[b][1,4]dioxin-6-yl)sulfonyl)-L-isoleucine containing a sulfonamide moiety was detected initially as one of the best “hits” according to chemical shift changes. The sulfonamide is a well-known moiety in drug discovery (Mathvink et al., 1999; Wu et al., 1999; Sleight et al., 1998; O'Brien et al., 2000; Tellew et al., 2003).
Two-dimensional ^1H-^15N HSQC spectra were used to screen a library of 212 compounds designed by the company Enamine for PDZ domains. 50 µM of ^15N -labelled protein samples was prepared in a 20 mM sodium phosphate buffer, containing 50 mM sodium chloride, 0.02 % ( w/v ) NaN3 , at pH 7.4. Stock solutions of small molecules were prepared in DMSO-d6 at a concentration of 160 mM. A ^1H-^15N HSQC spectrum of Dvl PDZ was acquired at 300 K with 5 % DMSO-d6 in the absence of ligand as reference spectrum. Mixtures of 16 compounds were added to ^15N -labelled Dvl PDZ at eightfold molar excess each. The final concentration of DMSO-d6 in the protein–ligand solutions was 5 %. Spectra were acquired with eight scans and 256 points in the indirect dimension. […] The active compound was obtained through successive deconvolution. Experiments were recorded on a Bruker DRX600 spectrometer equipped with a triple-resonance cryoprobe. The preparation of samples was done automatically by a Tecan Genesis RSP 150 pipetting robot. Spectra were analysed using the programs TOPSPIN and SPARKY (Goddard and Kneller, 2003).
50 µM of ^15N -labelled protein samples was prepared in a 20 mM sodium phosphate buffer containing 50 mM sodium chloride, 0.02 % ( w/v ) NaN3 , at pH 7.4. Stock solutions of small molecules were prepared in DMSO-d6 at a concentration of 160 mM. A ^1H-^15N HSQC spectrum of Dvl PDZ was acquired at 300 K with 5 % DMSO-d6 in the absence of ligand as reference spectrum. Mixtures of 16 compounds were added to ^15N -labelled Dvl PDZ at eightfold molar excess each. The final concentration of DMSO-d6 in the protein–ligand solutions was 5 %. Spectra were acquired with eight scans and 256 points in the indirect dimension.
The active compound was obtained through successive deconvolution. Experiments were recorded on a Bruker DRX600 spectrometer equipped with a triple-resonance cryoprobe. The preparation of samples was done automatically by a Tecan Genesis RSP 150 pipetting robot. Spectra were analysed using the programs TOPSPIN and SPARKY.

Assay [2] has as its target T2, Dvl-1 PDZ (Homo sapiens, UniProt O14640, C338S/V250I).
T2 sequence (O14640 245-338 V250I/C338S): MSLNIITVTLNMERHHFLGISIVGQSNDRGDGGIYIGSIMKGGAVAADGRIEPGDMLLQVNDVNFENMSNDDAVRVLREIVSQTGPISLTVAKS
In words: Binding constant by NMR titration. The arrangement: made in house; host or cells: E. coli BL21 (DE3). To be noted: mean ± SD of at least six residues, read-out: K D Dvl-1 PDZ.
Description: Chemical shift perturbations were obtained by comparing the ^1H-^15N backbone resonances of protein alone to those of protein–ligand complex. […] 1 Δδ=[ΔδH]^2+[ΔδN5]^2/2 Here ΔδN and ΔδH are the amide nitrogen and amide proton chemical shift differences between the free and the bound states of the protein. In order to estimate binding constants, titration experiments monitored by NMR were done. A series of ^1H-^15N HSQC were recorded as a function of ligand concentration. Residues showing a continuous chemical shift change and for which the intensity remained strong were classified as being in fast exchange. […] [LT] is the total concentration of the compound, and [PT] is the total concentration of the protein. K D is the equilibrium dissociation constant. The K D values are reported as means ± standard deviations of at least six residues influenced upon binding of the ligand.

In assay [3] the test system is Dvl-3 PDZ. In words: Binding constant by NMR titration. The arrangement: species or system human. To be noted: from NMR K D values. The source says: (§1) K D is the equilibrium dissociation constant.
Assay [4] addresses T1, Dvl-3 PDZ. Nature of the assay: Binding constant by NMR titration. The note with it: by NMR; mean ± SD of at least six residues; read-out: K D Dvl-3 PDZ.
Description: as §1

The target in assay [5] is Dvl-1 PDZ. The arrangement: method as in Kim et al., 2016. To be noted: value from literature; ref Kim et al., 2016; read-out: K D Dvl-1 PDZ; cited from earlier work.

With `O=C(O)c1cc(F)ccc1NS(=O)(=O)c1ccc2c(c1)CCCC2` [Compound 5], the “Chemical shift perturbation ΔCSP” value on Dvl-3 PDZ [1] was greater than 0.2 ppm. The Kd was 160 ± 14.6 µM on Dvl-1 PDZ [2] and 141 ± 14.1 µM at Dvl-3 PDZ [4]. Moreover, in the assay on Dvl-3 PDZ [3], the “discrimination between Dvl-3 PDZ and Dvl-1 PDZ (in words)” value was “did not distinguish”.

In the case of `CCOC(=O)c1cc2cc(O)ccc2n1CC(=O)NCCN1CCCCC1` [Ky-02327, ethyl 5-hydroxy-1-(2-oxo-2-((2-(piperidin-1-yl)ethyl)amino)ethyl)-1H-indole-2-carboxylate], the Kd at Dvl-1 PDZ [5] is 8.3 ± 0.8 µM.
